Measurements from ChEMBL document CHEMBL4400520, “Benzofuran-isatin-imine hybrids tethered via different length alkyl linkers: Design, synthesis and in vitro evaluation of anti-tubercular and anti-bacterial activities as well as cytotoxicity” (Eur J Med Chem, 2019).
Converted amounts (≈) assume the structure as drawn.

How the values were obtained:
Type in all cases: functional
[1] = tested on: Mycobacterium tuberculosis; test: Antitubercular activity against multidrug resistant Mycobacterium tuberculosis isolate 2
[2] = tested on: Mycobacterium tuberculosis; test: Antitubercular activity against multidrug resistant Mycobacterium tuberculosis isolate 1
[3] = tested on: Mycobacterium tuberculosis; test: Potency index, ratio of rifampin MIC to compound MIC for multidrug resistant Mycobacterium tuberculosis isolate 1
[4] = tested on: Mycobacterium tuberculosis; test: Potency index, ratio of isoniazid MIC to compound MIC for multidrug resistant Mycobacterium tuberculosis isolate 1
[5] = tested on: Mycobacterium tuberculosis; test: Potency index, ratio of isoniazid MIC to compound MIC for multidrug resistant Mycobacterium tuberculosis isolate 2
[6] = tested on: Mycobacterium tuberculosis; test: Potency index, ratio of ciprofloxacin MIC to compound MIC for multidrug resistant Mycobacterium tuberculosis isolate 2
[7] = tested on: Mycobacterium tuberculosis; test: Potency index, ratio of ciprofloxacin MIC to compound MIC for multidrug resistant Mycobacterium tuberculosis isolate 1
[8] = tested on: Mycobacterium tuberculosis; test: Potency index, ratio of rifampin MIC to compound MIC for multidrug resistant Mycobacterium tuberculosis isolate 2

SMILES | MIC [1] [µg/mL] | MIC [2] [µg/mL] | further results
CCOC(=O)c1c(-c2ccc(OC)cc2)oc2ccc(OCCCCCN3C(=O)/C(=N\OC)c4cc(F)ccc43)cc12 | 4.24 (≈ 7.38 µM) | 3.46 (≈ 6.02 µM) | –
CCO/N=C1\C(=O)N(CCCOc2ccc3oc(-c4ccc(OC)cc4)c(C(=O)OCC)c3c2)c2ccc(OC)cc21 | 2.12 (≈ 3.7 µM) | 2.24 (≈ 3.91 µM) | –
CCOC(=O)c1c(-c2ccccc2)oc2ccc(OCCCN3C(=O)/C(=N\OC)c4cc(OC)ccc43)cc12 | 0.27 (≈ 0.511 µM) | 0.21 (≈ 0.397 µM) | –
CCOC(=O)c1c(-c2ccc(OC)cc2)oc2ccc(OCCCCCCN3C(=O)/C(=N\NC(N)=S)c4ccccc43)cc12 | 0.48 (≈ 0.781 µM) | 0.47 (≈ 0.765 µM) | –
CCOC(=O)c1c(-c2ccc(F)cc2)oc2ccc(OCCCCCCN3C(=O)C(=O)c4cc(F)ccc43)cc12 | 2.98 (≈ 5.44 µM) | 5.89 (≈ 10.8 µM) | –
CNC(=O)c1c(-c2ccc(O)cc2)oc2ccc(O)c(CN3CCCCC3)c12 | < 0.016 | < 0.016 | –
CCOC(=O)c1c(-c2ccc(OC)cc2)oc2ccc(OCCCN3C(=O)/C(=N\OC)c4cc(OC)ccc43)cc12 | 0.29 (≈ 0.519 µM) | 0.49 (≈ 0.877 µM) | –
CCO/N=C1\C(=O)N(CCCOc2ccc3oc(-c4ccc(OC)cc4)c(C(=O)OCC)c3c2)c2ccccc21 | 5.88 (≈ 10.8 µM) | 4.25 (≈ 7.83 µM) | –
CCOC(=O)c1c(-c2ccc(OC)cc2)oc2ccc(OCCCN3C(=O)/C(=N\OC)c4ccccc43)cc12 | 0.21 (≈ 0.397 µM) | 0.16 (≈ 0.303 µM) | –
CCOC(=O)c1c(-c2ccccc2)oc2ccc(OCCCN3C(=O)/C(=N\OC)c4ccccc43)cc12 | 0.91 (≈ 1.83 µM) | 0.94 (≈ 1.89 µM) | –
CCO/N=C1\C(=O)N(CCCCCCOc2ccc3oc(-c4ccc(OC)cc4)c(C(=O)OCC)c3c2)c2ccccc21 | 3.86 (≈ 6.6 µM) | 2.69 (≈ 4.6 µM) | –
CCOC(=O)c1c(-c2ccc(OC)cc2)oc2ccc(OCCCCCCN3C(=O)/C(=N\NC(N)=S)c4cc(F)ccc43)cc12 | 0.9 (≈ 1.42 µM) | 0.95 (≈ 1.5 µM) | –
CCOC(=O)c1c(-c2ccc(OC)cc2)oc2ccc(OCCCCCCN3C(=O)C(=O)c4cc(F)ccc43)cc12 | 12.9 (≈ 23.1 µM) | 14.2 (≈ 25.3 µM) | –
CCOC(=O)c1c(-c2ccc(OC)cc2)oc2ccc(OCCCCCCN3C(=O)/C(=N\OC)c4cc(F)ccc43)cc12 | 3.56 (≈ 6.05 µM) | 2.85 (≈ 4.84 µM) | –
CCOC(=O)c1c(-c2ccc(OC)cc2)oc2ccc(OCCCCCCN3C(=O)/C(=N\OC)c4ccccc43)cc12 | 1.87 (≈ 3.28 µM) | 1.73 (≈ 3.03 µM) | –
CCO/N=C1\C(=O)N(CCCCOc2ccc3oc(-c4ccc(OC)cc4)c(C(=O)OCC)c3c2)c2ccccc21 | 3.42 (≈ 6.14 µM) | 3.23 (≈ 5.8 µM) | –
CCOC(=O)c1c(-c2ccc(OC)cc2)oc2ccc(OCCCCN3C(=O)/C(=N\OC)c4ccccc43)cc12 | 0.16 (≈ 0.295 µM) | 0.062 (≈ 0.114 µM) | Ratio [3]: >=48; Ratio [4]: >=48; Ratio [5]: >=48; Ratio [6]: >=48; Ratio [7]: >=48; Ratio [8]: >=48
O=C(O)c1cn(C2CC2)c2cc(N3CCNCC3)c(F)cc2c1=O [CIPROFLOXACIN] | 0.27 (≈ 0.815 µM) | 0.39 (≈ 1.18 µM) | –
NNC(=O)c1ccncc1 [ISONIAZID] | > 40 | > 40 | –
CO[C@H]1/C=C/O[C@@]2(C)Oc3c(C)c(O)c4c(O)c(c(/C=N/N5CCN(C)CC5)c(O)c4c3C2=O)NC(=O)/C(C)=C\C=C\[C@H](C)[C@H](O)[C@@H](C)[C@@H](O)[C@@H](C)[C@H](OC(C)=O)[C@@H]1C [RIFAMPIN] | > 40 | > 40 | –
